Source: patent publication US20250042889A1, “3CLPRO PROTEASE INHIBITOR” (SHANGHAI QILU PHARMACEUTICAL RESEARCH AND DEVELOPMENT …, priority 2021, published 2025)

Biological target: SARS-COV-2 3CLpro/Mpro protease (Severe acute respiratory syndrome coronavirus 2 (2019-nCoV) (SARS-CoV-2), UniProt P0DTD1)
Experiment: Inhibitory effect on SARS-COV-2 3CLpro/Mpro protease by fluorescence resonance energy transfer
Assay type: biochemical
Details: activity intervals A-D, read-out: IC50 (nM), Inhibition on SARS-CoV-2 3CLpro/Mpro protease

CNc1cncc(C(=O)N2C[C@H](Nc3c(C(=O)N4CCCCC4)cc(Br)cc3[N+](=O)[O-])C(F)(F)C2)c1 [Example 168]
IC50: 10 to 50 nM

CC1(O)CCN(C(=O)c2cc(Br)cc(C(F)(F)F)c2N[C@@H]2CCCC[C@@H]2NC(=O)c2cncc3cc(Cl)ccc23)CC1 [Example 169]
IC50: 10 to 50 nM

CNc1cncc(C(=O)N2CC(Nc3c(C(=O)N4CCN(CC5CC5)CC4)cc(Br)cc3[N+](=O)[O-])C(F)(F)C2)c1 (centres unmarked) [Example 170]
IC50: 10 to 50 nM

CNc1cncc(C(=O)N2CC(Nc3c(C(=O)N4CCC5(CCCCC5)CC4)cc(Br)cc3[N+](=O)[O-])C(C)(C)C2)c1 (centres unmarked) [Example 171]
IC50: 10 to 50 nM

CNc1cncc(C(=O)N2CC(Nc3c(C(=O)N4CCN(C5CCCCC5)CC4)cc(Br)cc3[N+](=O)[O-])C(F)(F)C2)c1 (centres unmarked) [Example 172]
IC50: 10 to 50 nM

CNc1cncc(C(=O)N2CC(Nc3c(C(=O)N4CCC[C@H](C)C4)cc(Br)cc3[N+](=O)[O-])C(C)(C)C2)c1 (some centres unmarked) [Example 173]
IC50: 10 to 50 nM

CNc1cncc(C(=O)N2CC(Nc3c(C(=O)N4CCC[C@@H](C)C4)cc(Br)cc3[N+](=O)[O-])C(C)(C)C2)c1 (some centres unmarked) [Example 174]
IC50: 10 to 50 nM

CNc1cncc(C(=O)N2CC(Nc3c(C(=O)N4CCC(C)(C)CC4)cc(Br)cc3[N+](=O)[O-])C(C)(C)C2)c1 (centres unmarked) [Example 175]
IC50: 10 to 50 nM

CNc1cncc(C(=O)N2CC(Nc3c(C(=O)N4CCC5(CCCC5)CC4)cc(Br)cc3[N+](=O)[O-])C(C)(C)C2)c1 (centres unmarked) [Example 176]
IC50: 10 to 50 nM

CNc1cncc(C(=O)N2CC(Nc3c(C(=O)N4CCC5(CCC5)CC4)cc(Br)cc3[N+](=O)[O-])C(C)(C)C2)c1 (centres unmarked) [Example 177]
IC50: 10 to 50 nM

CNc1cncc(C(=O)N2CC(Nc3c(C(=O)N4C[C@@H](C)N(CCOC)[C@@H](C)C4)cc(Br)cc3[N+](=O)[O-])C(F)(F)C2)c1 (some centres unmarked) [Example 178]
IC50: 50 to 100 nM

CC1CC(C(=O)N2CCC[C@@H](Nc3c(C(=O)N4C[C@@H](C)O[C@@H](C)C4)cc(Br)cc3[N+](=O)[O-])C2)CC(=O)N1 (some centres unmarked) [Example 179]
IC50: 50 to 100 nM

CNc1cncc(C(=O)N2CC(Nc3c(C(=O)N4C[C@H](C)C[C@H](C)C4)cc(Br)cc3[N+](=O)[O-])C(C)(C)C2)c1 (some centres unmarked) [Example 180]
IC50: 50 to 100 nM

COCCN1CCN(C(=O)c2cc(Br)cc([N+](=O)[O-])c2NC2CN(C(=O)c3cncc(I)c3)CC2(F)F)CC1 (centres unmarked) [Example 181]
IC50: 10 to 50 nM

CNc1cncc(C(=O)N2C[C@H](Nc3c(C(=O)N4C[C@@H](C)O[C@@H](C)C4)cc(Br)cc3[N+](=O)[O-])C(F)(F)C2)c1 [Example 182]
IC50: 10 to 50 nM

O=C(c1cncc(Br)c1)N1C[C@H](Nc2c(C(=O)N3CCC(F)(F)CC3)cc(Br)cc2[N+](=O)[O-])C(F)(F)C1 [Example 183]
IC50: 10 to 50 nM

O=C(N[C@H]1CCOC[C@H]1Nc1c(C(=O)N2CCCCC2)cc(Br)cc1[N+](=O)[O-])c1cncc2cc(Cl)ccc12 [Example 184]
IC50: < 10 nM

O=C(N[C@H]1CCOC[C@H]1Nc1c(C(=O)N2CCC(F)(F)CC2)cc(Br)cc1[N+](=O)[O-])c1cncc2cc(Cl)ccc12 [Example 185]
IC50: 10 to 50 nM

CNc1cncc(C(=O)N2CC(Nc3c(C(=O)N4CCCCC4)cc(Br)cc3[N+](=O)[O-])C(C)(C)C2)c1 (centres unmarked) [Example 186]
IC50: 10 to 50 nM

CNc1cncc(C(=O)N2C[C@H](Nc3c(C(=O)N4C[C@@H](C)O[C@H](C)C4)cc(Br)cc3[N+](=O)[O-])C(C)(C)C2)c1 [Example 187]
IC50: 10 to 50 nM

CNc1cncc(C(=O)N2C[C@H](Nc3c(C(=O)N4C[C@H](C)O[C@@H](C)C4)cc(Br)cc3[N+](=O)[O-])C(C)(C)C2)c1 [Example 189]
IC50: 10 to 50 nM

COCCN1CCN(C(=O)c2cc(Br)cc([N+](=O)[O-])c2N[C@H]2CN(C(=O)c3cncc(I)c3)CC2(C)C)CC1 [Example 190]
IC50: 10 to 50 nM

CNc1cncc(C(=O)N2C[C@H](Nc3c(C(=O)N4CCN(CCOC)CC4)cc(Br)cc3[N+](=O)[O-])C(C)(C)C2)c1 [Example 191]
IC50: 10 to 50 nM

O=C(c1cncc(I)c1)N1C[C@H](Nc2c(C(=O)N3CCC(F)(F)CC3)cc(Br)cc2[N+](=O)[O-])C(F)(F)C1 [Example 192]
IC50: 10 to 50 nM

O=C(N[C@H]1COCC[C@H]1Nc1c(C(=O)N2CCCCC2)cc(Br)cc1[N+](=O)[O-])c1cncc2cc(Cl)ccc12 [Example 193]
IC50: 10 to 50 nM

O=C(N[C@H]1COCC[C@H]1Nc1c(C(=O)N2CCCCC2)cc(Br)cc1[N+](=O)[O-])c1cncc2ccccc12 [Example 194]
IC50: 10 to 50 nM

COCCN1[C@H](C)CN(C(=O)c2cc(Br)cc([N+](=O)[O-])c2N[C@@H]2COCC[C@@H]2NC(=O)c2cncc3ccccc23)C[C@@H]1C [Example 195]
IC50: 10 to 50 nM

CNc1cncc(C(=O)N[C@H]2CCCC[C@H]2Nc2c(C(=O)N3CCCCC3)cc(Br)cc2[N+](=O)[O-])c1 [Example 196]
IC50: 10 to 50 nM

O=C(c1cncc(Br)c1)N1C[C@H](Nc2c(C(=O)N3CCCCC3)cc(Br)cc2[N+](=O)[O-])C(F)(F)C1 [Example 197]
IC50: 10 to 50 nM

CNc1cncc(C(=O)N[C@H]2CCCC[C@H]2Nc2c(C(=O)N3C[C@@H](C)O[C@@H](C)C3)cc(Br)cc2[N+](=O)[O-])c1 [Example 198]
IC50: 10 to 50 nM

CNc1cncc(C(=O)N2C[C@H](Nc3c(C(=O)N4C[C@@H](C)O[C@H](C)C4)cc(Br)cc3[N+](=O)[O-])C(F)(F)C2)c1 [Example 199]
IC50: 50 to 100 nM

CNc1cncc(C(=O)N2CCC[C@@H](Nc3c(C(=O)N4CCOCC4)cc(Br)cc3[N+](=O)[O-])C2)c1 [Example 200]
IC50: 10 to 50 nM

CNc1cncc(C(=O)N[C@H]2CCOC[C@H]2Nc2c(C(=O)N3CCCCC3)cc(Br)cc2[N+](=O)[O-])c1 [Example 201]
IC50: 10 to 50 nM

CNc1cncc(C(=O)N2C[C@H](Nc3c(C(=O)N4C[C@H](C)C[C@@H](C)C4)cc(Br)cc3[N+](=O)[O-])C(F)(F)C2)c1 [Example 202]
IC50: 10 to 50 nM

C[C@@H]1CN(C(=O)c2cc(Br)cc([N+](=O)[O-])c2N[C@H]2CN(C(=O)c3cncc(Br)c3)CC2(F)F)C[C@H](C)O1 [Example 203]
IC50: 10 to 50 nM

O=C1CC(C(=O)N2CCC[C@@H](Nc3c(C(=O)N4CCCCC4)cc(Br)cc3[N+](=O)[O-])C2)c2ccccc2N1 (some centres unmarked) [Example 204]
IC50: 10 to 50 nM

O=C(N[C@H]1CCOC[C@H]1Nc1c(C(=O)N2CCCCC2)cc(Br)cc1[N+](=O)[O-])c1cncc2ccccc12 [Example 205]
IC50: < 10 nM

O=C(N[C@H]1COCC[C@H]1Nc1c(C(=O)N2CCC(F)(F)CC2)cc(Br)cc1[N+](=O)[O-])c1cncc2cc(Cl)ccc12 [Example 206]
IC50: 50 to 100 nM

O=C(N[C@H]1CCCC[C@H]1Nc1c(C(=O)N2C[C@@H](O)C[C@@H](NC(=O)C(F)(F)F)C2)cc(Br)cc1C(F)(F)F)c1cncc2cc(Cl)ccc12 [Example 207]
IC50: 10 to 50 nM

COCCN1CCN(C(=O)c2cc(Br)cc([N+](=O)[O-])c2N[C@H]2CN(C(=O)c3cncc(I)c3)CC2(F)F)CC1 [Example 208]
IC50: 10 to 50 nM

O=C(c1cncc(I)c1)N1C[C@H](Nc2c(C(=O)N3CCCCC3)cc(Br)cc2[N+](=O)[O-])C(F)(F)C1 [Example 209]
IC50: 10 to 50 nM

C[C@@H]1CN(C(=O)c2cc(Br)cc(C(F)(F)F)c2N[C@@H]2CCOC[C@@H]2NC(=O)c2cncc3ccccc23)C[C@H](C)O1 [Example 210]
IC50: 10 to 50 nM

COCCN1[C@H](C)CN(C(=O)c2cc(Br)cc([N+](=O)[O-])c2N[C@@H]2CCOC[C@@H]2NC(=O)c2cncc3ccccc23)C[C@@H]1C [Example 211]
IC50: 10 to 50 nM

CNc1cncc(C(=O)N2CCC[C@@H](Nc3c(C(=O)N4C[C@@H](C)O[C@H](C)C4)cc(Br)cc3[N+](=O)[O-])C2)c1 [Example 212]
IC50: 10 to 50 nM

CNc1cncc(C(=O)N2CCC[C@@H](Nc3c(C(=O)N4C[C@H](C)O[C@@H](C)C4)cc(Br)cc3[N+](=O)[O-])C2)c1 [Example 213]
IC50: 10 to 50 nM

C[C@@H]1CN(C(=O)c2cc(Br)cc([N+](=O)[O-])c2N[C@@H]2COCC[C@@H]2NC(=O)c2cncc3ccccc23)C[C@H](C)O1 [Example 214]
IC50: 10 to 50 nM

COCCN1CCN(C(=O)c2cc(Br)cc([N+](=O)[O-])c2N[C@@H]2COCC[C@@H]2NC(=O)c2cncc3cc(Cl)ccc23)CC1 [Example 215]
IC50: 10 to 50 nM

CC(=O)Nc1cncc(C(=O)N2CCC[C@@H](Nc3c(C(=O)N4CCCCC4)cc(Br)cc3[N+](=O)[O-])C2)c1 [Example 216]
IC50: 10 to 50 nM

CNc1cncc(C(=O)N[C@H]2CCCC[C@H]2Nc2c(C(=O)N3C[C@H](C)O[C@@H](C)C3)cc(Br)cc2[N+](=O)[O-])c1 [Example 217]
IC50: 50 to 100 nM

COCCN1CCN(C(=O)c2cc(Br)cc([N+](=O)[O-])c2N[C@@H]2COCC[C@@H]2NC(=O)c2cncc3ccccc23)CC1 [Example 218]
IC50: 10 to 50 nM

CNc1cncc(C(=O)N2CCC[C@@H](Nc3c(C(=O)N4CCO[C@@H](C)C4)cc(Br)cc3[N+](=O)[O-])C2)c1 [Example 219]
IC50: 10 to 50 nM

C[C@@H]1CN(C(=O)c2cc(Br)cc([N+](=O)[O-])c2N[C@H]2CN(C(=O)c3cncc(Br)c3)CC2(C)C)C[C@@H](C)O1 [Example 220]
IC50: 50 to 100 nM

CNc1cncc(C(=O)N[C@H]2CCOC[C@H]2Nc2c(C(=O)N3CCN(CCOC)CC3)cc(Br)cc2[N+](=O)[O-])c1 [Example 221]
IC50: 10 to 50 nM

CNc1cncc(C(=O)N[C@H]2CCCC[C@H]2Nc2c(C(=O)N3CCN(CCOC)CC3)cc(Br)cc2[N+](=O)[O-])c1 [Example 222]
IC50: 10 to 50 nM

CNc1cncc(C(=O)N[C@H]2CCCC[C@H]2Nc2c(C(=O)N3C[C@@H](C)O[C@H](C)C3)cc(Br)cc2[N+](=O)[O-])c1 [Example 223]
IC50: 10 to 50 nM

CNc1cncc(C(=O)N[C@H]2CCOC[C@H]2Nc2c(C(=O)N3C[C@H](C)O[C@@H](C)C3)cc(Br)cc2[N+](=O)[O-])c1 [Example 224]
IC50: 10 to 50 nM

C[C@H]1CN(C(=O)c2cc(Br)cc([N+](=O)[O-])c2N[C@H]2CN(C(=O)c3cncc(Br)c3)CC2(C)C)C[C@H](C)O1 [Example 225]
IC50: < 10 nM

CNc1cncc(C(=O)N[C@H]2CCOC[C@H]2Nc2c(C(=O)N3CCC[C@@H](C)C3)cc(Br)cc2[N+](=O)[O-])c1 [Example 226]
IC50: 10 to 50 nM

COCCN1CCN(C(=O)c2cc(Br)cc([N+](=O)[O-])c2N[C@@H]2CCOC[C@@H]2NC(=O)c2cncc3ccccc23)CC1 [Example 227]
IC50: 10 to 50 nM
